From patent US20260224512A1, “USE OF 5-METHOXY-2-AMINOINDAN ("MEAI") IN METHODS FOR TREATING METABOLIC SYNDROME” (Clearmind Labs Corp., priority 2022, published 2026)

Assays:
[1] = tested on: C57BL/6 mice; experiment: Acute single-dose tolerability of MEAI; assay type: in vivo
Description: (§1) Male 6-week-old C57BL/6 mice (Envigo, Israel) were maintained under a 12-h light/dark cycle and fed ad libitum. A total of 32 animals were divided into four experimental groups (N=8 mice per group) receiving single doses of 40, 60, or 100 mg/kg of MEAI or vehicle (sterile water), which was administered via oral gavage two hours prior to the dark phase. The animals were monitored for 48 hours post-dose for drug tolerability, food and water intakes as well as activity and metabolic parameters. At the end of the experiment, the animals were euthanized, and tissues (brain, liver, fat, and kidney) and blood were collected and stored frozen for future analyses. To generate diet-induced obesity, C57BI6/J mice were fed either a high-fat diet (HFD) (60% of calories from fat, 20% from protein, and 20% from carbohydrates; Research Diet, D12492) or a standard laboratory diet (STD, 14% fat, 24% protein, 62% carbohydrates; NIH-31 rodent diet) for 18 weeks.

[2] = tested on: C57BL/6 mice; experiment: Acute multi-parameter metabolic assessment (food and water intake, respirometry); assay type: in vivo
Description: as §1
(§2) Multi-parameter metabolic assessment. The metabolic profiles and food and water intakes of the mice were assessed by using the Promethion High-Definition Behavioral Phenotyping System (Sable Instruments, Inc., Las Vegas, NV, USA). Data acquisition and instrument control were performed using MetaScreen software version 2.2.18.0, and the obtained raw data were processed using ExpeData version 1.8.4 using an analysis script detailing all aspects of data transformation. Mice with free access to food and water were subjected to a standard 12 h light/12 h dark cycle, which consisted of a 48 h acclimation period followed by 24 h of sampling. Respiratory gases were measured by using the GA-3 gas analyzer (Sable Systems, Inc., Las Vegas, NV, USA) using a pull-mode, negative pressure system. Air flow was measured and controlled by FR-8 (Sable Systems, Inc., Las Vegas, NV, USA), with a set flow rate of 2000 mL/min. Water vapor was continuously measured and its dilution effect on O2 and CO2 was mathematically compensated. Respiratory exchange rate (RER) was calculated as the ratio of CO2 produced (VCO2) to O2 consumed (VO2) using Equation (1): […]
(§3) Total energy expenditure (TEE) was calculated using VO2 and RER, according to Equation (2): […]
(§4) Fat oxidation (FO) and carbohydrate oxidation (CHO) were calculated using VO2 and VCO2 based on Equations (3) and (4), respectively: […]

[3] = tested on: C57BL/6 mice; experiment: Acute wheel running and locomotive activity; assay type: in vivo
Description: as §1
(§5) Wheel running and locomotive activity. The assessment of wheel running and locomotor activity was performed using the Promethion High-Definition Behavioral Phenotyping System (Sable Instruments, Inc., Las Vegas, NV, USA). Wheel revolutions were measured with a monitor that recorded voluntary wheel running activity, and locomotor activity was quantified using disruptions of infrared XYZ beam arrays, with a beam spacing of 0.25 cm.

[4] = tested on: C57BL/6 mice; experiment: Sucrose preference test; assay type: in vivo; settings: single dose 40 mg/kg
Description: Sucrose Preference Test. Thirteen-week-old male C57BL/6 mice maintained on a STD and housed individually were habituated to two water bottles in their home cage for 48 h prior to the test. Baseline intake was measured by weighing the bottles. On the test day (Day 1), 2 h before the onset of the dark phase, fresh water and a 1.5% sucrose solution were added to the bottles, and mice were subsequently treated orally with MEAI (40 mg/kg, N=8) or sterile water (N=8). The mice were allowed to drink from either bottle freely for 24 h, after which the bottles were weighed to measure consumption. The study was repeated for an additional day (Day 2), with the bottles switched in position (in the cage) to account for side preference. The sucrose and water intake over the two days were averaged, and the sucrose preference index was calculated as the average consumed sucrose solution divided by the average volume of total consumed liquid (average water plus average sucrose solution).

[5] = tested on: DIO mouse model; experiment: Chronic MEAI in HFD-induced obesity (DIO) model: body weight and body composition; assay type: in vivo, mice; settings: 28 days
Description: (§6) Effect of MEAI on Obesity. Male C57BL/6 mice were used to establish DIO by feeding them a high-fat diet (HFD; 60% Kcal fat, 20% Kcal protein, and 20% Kcal carbohydrates; Research Diet, D12492) for 18 weeks. After this period, mice were treated with either vehicle (sterile water, N=8) or MEAI (N=11) daily for 28 days by gavage at a dose of 40 mg/kg/day. Age-matched control mice (N=10) on a standard diet (STD; 14% Kcal fat, 24% Kcal protein, 62% Kcal carbohydrates; NIH-31 rodent diet) and received vehicle daily. The body weight of all mice was monitored daily, and total body fat and lean mass were determined by EchoMRI-100H™ (Echo Medical Systems LLC, Houston, TX, USA). On Day 29, at the end of the experimental period, mice were euthanized by a cervical dislocation under anesthesia. The kidneys, brain, liver, and fat pads were removed and weighed, and samples were either snap-frozen or fixed in buffered 4% formalin. Trunk blood was collected to determine biochemical parameters.

[6] = tested on: DIO mouse model; experiment: Chronic MEAI in DIO model: food consumption and energy metabolism; assay type: in vivo, mice; settings: 40 mg/kg/day
Description: as §6, §2, §3, §4

[7] = tested on: DIO mouse model; experiment: Chronic MEAI in DIO model: wheel running and locomotive activity; assay type: in vivo, mice; settings: 40 mg/kg/day
Description: as §6, §5

[8] = tested on: DIO mouse model; experiment: Glucose tolerance test (ipGTT), insulin tolerance test (ipITT) and glycemic parameters in DIO mice; assay type: in vivo; settings: 40 mg/kg/day
Description: as §6
Glucose Tolerance Test (ipGTT) and the Insulin Tolerance Test (ipITT). On day 25 of the experiment, mice were subjected to an overnight fasting and then injected with glucose (1.5 g/kg i.p.) on the following day (day 26). Blood glucose levels were determined at 0, 15, 30, 45, 60, 90, and 120 min after injection using the Contour® glucometer (Bayer, Pittsburgh, PA, USA). The mice were then fasted for 6 h on the next day (day 27) before being administered insulin (0.75 U/kg, i.p.; Actrapid vials, Novo Nordisk A/S, Bagsværd, Denmark). Blood glucose levels were determined at the same intervals as described above. To assess insulin resistance, the homeostasis model assessment insulin resistance (HOMA-IR) was calculated as fasting serum insulin ([μU/mL]×fasting plasma glucose [mmol/L]/22.5). The relative insulin sensitivity index (ISI) was calculated as 1/(glucose×insulin)×1000, with glucose expressed as mg/dl and insulin as mU/L.
(§7) Blood and urine biochemistry. Serum levels of alanine aminotransferase (ALT), aspartate aminotransferase (AST), alkaline phosphatase (ALP), cholesterol, triglycerides, high-density lipoprotein (HDL), and low-density lipoprotein (LDL) were determined by using the Cobas C-111 chemistry analyzer (Roche, Switzerland). Blood urea nitrogen (BUN) was calculated based on serum urea levels as follows: BUN (mg/dL)=Urea (mg/dL)/2.1428. Fasting blood glucose was measured using the Contour® glucometer (Bayer, Pittsburgh, PA). Serum insulin was determined using an Ultra-Sensitive Mouse Insulin ELISA kit (Crystal Chem, Inc., Elk Grove Village, IL, USA).

[9] = tested on: DIO mouse model; experiment: Blood biochemistry in DIO mice; assay type: in vivo; settings: 40 mg/kg/day
Description: as §6, §7

[10] = tested on: DIO mouse model; experiment: Kidney and liver weight in DIO mice; assay type: in vivo; settings: 40 mg/kg/day, HFD-fed mice
Description: as §6

[11] = tested on: DIO mouse model; experiment: Hepatic triglyceride and cholesterol content, Oil Red O staining in DIO mice; assay type: in vivo; settings: 40 mg/kg/day
Description: as §6
Hepatic Triglyceride and Cholesterol Content. Liver tissue was extracted as described in (Tam et al., 2012), and its cholesterol and triglycerides contents were determined using a Cobas C-111 chemistry analyzer (Roche, Switzerland).
Histopathology. First, 5 μm paraffin-embedded liver sections from 5 animals per group were stained with hematoxylin-eosin staining. Liver images were captured using a Zeiss Axio Scope A1 light microscope (Carl Zeiss AG, Jena, Germany equipped with a Zeiss AxioCam ICc5 color camera. Ten random 40× fields of view were taken from each animal to obtained representative images.
Oil Red O staining. Liver cryosections (8 μm) were stained with Oil Red O (Cat #ab150678; Abcam) following the manufacturer's protocol. Images were acquired as described above. For quantitative analysis of Oil Red O staining, the area of lipid droplets in the liver cryosections was measured using the ImageJ software.

[12] = single dose 40, 60, 100 mg/kg, 24-hour period
[13] = single dose, 60 and 100 mg doses
[14] = single dose, 40 mg/kg and above
[15] = compared to HFD vehicle-treated group
[16] = in comparison with HFD-vehicle group
[17] = compared to HFD vehicle control

SMILES: COc1ccc2c(c1)CC(N)C2 (stereo not shown) [MEAI, 5-methoxy-2-aminoindan]
- deaths after administration ([1]; single oral dose 100 mg/kg, within a few hours, with stress of metabolic testing): two subjects in the 100 mg/kg group died
- drug tolerability, changes in behavior ([1]; single oral dose 40 and 60 mg/kg, lean mice): well-tolerated, with no observable changes in behavior
- carbohydrate oxidation (CHO) rate [2, 12]: corresponding elevations
- fat oxidation (FO) rate [2, 12]: corresponding elevations
- total energy expenditure (TEE) [2, 12]: significant dose-dependent increases
- rate of carbon dioxide emission (VCO2) [2, 13]: higher rates
- rate of oxygen consumption (VO2) [2, 13]: higher rates
- respiratory exchange rate (RER) ([2]; single dose, light phase, 60 and 100 mg doses): increase
- water consumption ([2]; single oral dose 40, 60 or 100 mg/kg): no notable changes
- feeding patterns (food intake) ([2]; single oral dose 40, 60 or 100 mg/kg, dark and light phases, vs vehicle): did not reach statistical significance
- voluntary wheel running ([3]; single dose 100 mg/kg): significant suppression
- total number of beam breaks (ambulatory and fine movements) ([3]; single dose 40, 60, 100 mg/kg): no significant changes
- voluntary wheel running ([3]; single dose 40 and 60 mg/kg): minor elevations
- directed voluntary activity (pedestrian locomotion) [3, 14]: significant and dose-dependent increase
- pedestrian speed [3, 14]: significant and dose-dependent increase
- total pedometer count ([3]; single dose, all doses tested (40, 60, 100 mg/kg)): increase
- water intake levels [4]: without any accompanying decrease
- acute preference for sucrose solution ([4]; 1.5% sucrose vs water, most evident in initial 24-hour period): significantly reduced
- preference for sucrose solution ([4]; subsequent 24-hour period): slight reduction
- body weight of HFD-fed mice ([5]; 40 mg/kg/day by gavage): significantly reduced
- decrease in total body weight compared to the obese vehicle-treated group ([5]; 40 mg/kg/day by gavage, HFD-fed mice): ~15%
- adiposity associated with obesity ([5]; 40 mg/kg/day, HFD-fed mice): reduced
- lean body mass, lean body mass ratio, net lean mass ([5]; 40 mg/kg/day, HFD-fed mice): preserved
- overall fat mass ([5]; 40 mg/kg/day, HFD-fed mice): reducing
- carbohydrate oxidation (CHO) ([6]; HFD-fed mice): no effect of the drug itself
- respiratory exchange rate (RER) ([6]; HFD-fed mice, in comparison to STD vehicle group): slightly decreased
- food intake per meal ([6]; HFD-fed mice, both MEAI and vehicle HFD groups): reduction in food intake per meal
- carbon dioxide production [6, 15]: slightly increased
- oxygen consumption [6, 15]: slightly increased
- energy expenditure ([6]; compared to both HFD and STD vehicle groups, light and dark phases): significant increase
- overall rate of fat oxidation (FO) ([6]; compared to both HFD- and STD-vehicle groups): increase
- water intake ([6]; obese mice): did not have any effect
- pedestrian locomotive activity, speed and total distance relative to STD-vehicle group (over-stimulatory effect) ([7]; HFD-fed mice): did not surpass the levels of the STD-vehicle treated group
- time spent engaging in various activities within the cage ([7]; HFD-fed mice): preference for voluntary activities
- voluntary wheel running ([7]; HFD-fed mice): increased capability
- voluntary actions such as pedestrian activity and grooming (ambulatory activity) ([7]; HFD-fed mice, throughout the day, more prominent in dark phase): significantly increased
- pedestrian locomotion speed [7, 16]: increased
- pedestrian locomotive activity [7, 16]: increased
- total distance travelled [7, 16]: increased
- HOMA-IR [8]: beneficial effects
- fasting blood glucose [8]: reduced
- glucose metabolism (glucose and insulin tolerance tests) [8]: significant improvement
- insulin levels [8]: reduced
- insulin sensitivity (insulin tolerance test) [8]: normalized
- insulin sensitivity index (ISI) [8]: beneficial effects
- HDL-to-LDL ratio ([9]; HFD-fed mice): increased
- blood urea nitrogen (BUN) levels ([9]; HFD-fed mice): slight improvements
- cholesterol levels ([9]; HFD-fed mice, not statistically significant): tendency towards decreased
- circulating triglyceride levels ([9]; any of the study groups): no significant alterations
- HDL levels ([9]; compared to HFD vehicle group): without notable changes
- LDL levels ([9]; compared to HFD vehicle group): significantly reduced
- ALP levels ([9]; compared to HFD-vehicle group): significantly reduced
- ALT levels ([9]; compared to HFD-vehicle group): did not significantly alter
- AST levels ([9]; compared to HFD-vehicle group): did not significantly alter
- kidney-to-body weight ratio [10]: normalized
- liver weight [10]: reduced
- liver weight to body weight ratio [10]: normalized
- hepatic cholesterol levels [11, 17]: trend toward a reduction
- liver triglycerides [11, 17]: significant reductions
- Oil Red O staining [11, 15]: decrease
- lipid vacuole numbers [11, 15]: reduced
